Reference: US6265423A, “Aromatic polycyclic retinoid-type derivatives, method for preparing same, and use thereof for making pharmaceutical and cosmetic compositions” (priority 1996, dated 2001)

Assays:
[1] = tested on: ZR-75-1 human mammary cancer cells; test: MTT test, proliferation of ZR-75-1; format: cell-based; conditions: for activity at 100 µM / activity at 1 µM / activity at 0.01 µM: Homo sapiens, 72 h, control = 100%, read-out: level of proliferation; for activity at 100 µM: ZR-75-1, 10^-4 M; for activity at 1 µM: ZR-75-1, 10^-6 M; for activity at 0.01 µM: ZR-75-1, 10^-8 M; for effect on cellular increase, ZR-75-1 (in words): MTT test
Procedure: (§1) The cells that were cultured came from the ATCC (American Type Culture Collection).
(§2) The cellular lines are kept in culture in a monolayer at 37° C. in closed culture dishes (Nunc. Gibco BRL, Life Technologies, Belgium) containing the minimum essential medium (MEM, Gibco) supplemented with 5% of Foetal Calf Serum, (FCS, Gibco), 0.6 mg/ml of glutamine (Gibco) and a mixture of 200 IU/mi of penicillin (Gibco), 200 μg/ml of streptomycin (Gibco) and 0.1 mg/ml of gentamycin (Gibco). The foetal calf serum is decomplemented for 1 hour at 56° C.
(§3) This test is based on the mitochondrial reduction by living metabolically active cells of the MTT (3-(4,5-dimethylthiazol-2-yl)-2,5-diphenyltetrazolium bromide) of yellowish colour into a blue coloured product, formazan. The quantity of formazan obtained is directly proportional to the number of living cells. After incubation of the cells for 24 hours in microplates with 96 flat bottomed wells, the culture medium is replaced by 100 μl of fresh culture medium containing the drug to be tested.
(§4) The microplates are then incubated for 3 hours at 37° C. and centrifuged for 10 minutes at 400 g (GPR centrifuge, Beckman). The MTT solution is replaced by 100 μl of dimethylsulphoxide (Merck). The microplates are agitated (Vari-Shaker, Dynatech) for 10 minutes.
(§5) In the microplates, the control cells like the treated cells were incubated in a medium without the compounds to be tested for 24 hours. The control cells are incubated in a medium without a drug throughout the whole experiment, while the treated cells are incubated in different media. These media contain the molecule to be tested at various concentrations: 10^-8 M, 10^-6 M and 10^-4 M. All the tests are carried out in 6 duplicates.
(§6) The statistical comparisons are carried out according to the Fisher Test:
(§7) The mean optical density measured for each experimental condition is expressed as a percentage in relation to the laid down control condition being equal to 100%.

[2] = tested on: T-47D human mammary cancer cells; test: MTT test, proliferation of T-47D; format: cell-based; conditions: for activity at 100 µM / activity at 1 µM / activity at 0.01 µM: Homo sapiens, T47D, T-47D, 72 h, control = 100%, read-out: level of proliferation; for activity at 100 µM: 10^-4 M; for activity at 1 µM: 10^-6 M; for activity at 0.01 µM: 10^-8 M; for effect on cellular increase, T-47D (in words): MTT test
Procedure: as §1, §2, §3, §4, §5, §6, §7

[3] = tested on: A549 human pulmonary cancer cells; test: MTT test, proliferation of A549; format: cell-based; conditions: Homo sapiens, 72 h, control = 100%, read-out: level of proliferation; for activity at 100 µM: A549, 10^-4 M; for activity at 1 µM: A549, 10^-6 M; for activity at 0.01 µM: A549, 10^-8 M
[4] = tested on: A-427 human pulmonary cancer cells; test: MTT test, proliferation of A-427; conditions: for activity at 0.01 µM / activity at 1 µM / activity at 100 µM: Homo sapiens, A-427, 72 h, read-out: level of proliferation; for effect on cellular increase, A-427 (in words): MTT test

SMILES | activity at 100 µM [1] [%] | activity at 1 µM [1] [%] | activity at 0.01 µM [1] [%] | activity at 100 µM [2] [%] | activity at 1 µM [2] [%] | activity at 0.01 µM [2] [%] | activity at 100 µM [3] [%] | activity at 1 µM [3] [%] | activity at 0.01 µM [3] [%] | activity at 0.01 µM [4] [%] | activity at 1 µM [4] [%] | activity at 100 µM [4] [%] | effect on cellular increase, ZR-75-1 (in words) [1] | effect on cellular increase, T-47D (in words) [2] | effect on cellular increase, A-427 (in words) [4]
C/C(=C\c1ccc2c(c1)C(C)(C)CCS2)c1ccc(C(=O)O)cc1 [CB12994] | 31.8 | 126 | 121 | 1.8 | 51.8 | 67.6 | 53.2 | 89 | 92.1 | 107 | 93.6 | 4.4 |  |  | 
C/C(=C\c1ccc2c(c1)C(C)(C)CCS2(=O)=O)c1ccc(-c2nnn[nH]2)cc1 [CB15068, (E) 5-[4-[1-(3',4'-dihydro-4'4'-dimethyl-1',1'-dioxide-2'H-1'-benzothiopyran-6'-yl)-2-propenyl]phenyl]-1H-tetrazole] | 59.3 | 99.9 | 99.2 | 32.2 | 87.8 | 101 | 81.8 | 97.3 | 92.7 | 88.5 | 98 | 24.3 | do not influence the cellular increase of the lineages under consideration | do not influence the cellular increase of the lineages under consideration | 
C/C(=C/c1cc2c(cc1C)C(C)(C)CCC2(C)C)c1ccc(C(=O)O)cc1 [CB32706] | 0.7 | 93.1 | 95 | 0 | 88.6 | 94 | 6 | 103 | 101 | 103 | 99.6 | 0.8 |  |  | 
C/C(=C/c1ccc2c(c1)C(C)(C)CCS2(=O)=O)c1ccc(-c2nnn[nH]2)cc1 [CB39122, (Z) 5-[4-[1-(3',4'-dihydro-4',4'-dimethyl-1',1'-dioxide-2'H-1'-benzothiopyran-6'-yl)-2-propenyl]phenyl]-1H-tetrazole] | 74.2 | 97.3 | 102 | 57.1 | 100 | 102 | 84.8 | 98 | 96.2 | 93.9 | 96.5 | 27.1 |  |  | 
C/C(=C\c1ccc2c(c1)C(C)(C)CCS2(=O)=O)c1ccc(C(=O)O)cc1 [CB39356] | 59.6 | 148 | 133 | 36.4 | 108 | 86 | 72 | 105 | 105 | 124 | 129 | 70.7 | do not influence the cellular increase of the lineages under consideration | do not influence the cellular increase of the lineages under consideration | a stimulation of the cellular increase
C/C(=C\c1cc2c(cc1C)C(C)(C)CCC2(C)C)c1ccc(-c2nnn[nH]2)cc1 [CB40747, (E) 5-[4-[1-(5,6,7,8-tetrahydro-3,5,5,8,8-pentamethyl-2-naphthalenyl)-2-propenyl]phenyl]-1H-tetrazole] | 0 | 107 | 111 | 0 | 85.2 | 106 | 0 | 192 | 176 | 100 | 83.7 | 1.7 |  |  | a stimulation of the cellular increase
C/C(=C/c1ccc2c(c1)C(C)(C)CCS2)c1ccc(C(=O)O)cc1 [CB41666] | 48.5 | 115 | 112 | 28 | 69.5 | 88.7 | 63.2 | 89.9 | 94.5 | 83 | 91.2 | 7.6 |  |  | 
Cc1cc2c(cc1/C=C(\c1ccc(C(=O)O)cc1)C(F)(F)F)C(C)(C)CCC2(C)C [CB62899, (E) 4-[1-trifluoromethyl-2-(5,6,7,8-tetrahydro-3,5,5,8,8-pentamethyl-2-naphthalenyl)-1-ethenyl]benzoic acid] | 0.4 | 112 | 112 | 1.7 | 73.7 | 128 | 0.45 | 119 | 131 | 115 | 124 | 0 |  |  | 
Cc1cc2c(cc1/C=C(\c1ccc(-c3nnn[nH]3)cc1)C(F)(F)F)C(C)(C)CCC2(C)C [CB63237, (E) 5-[4-[1-trifluoromethyl-2-(5,6,7,8-tetrahydro-3,5,5,8,8-pentamethyl-2-naphthalenyl)-1-ethenyl]phenyl]-1H-tetrazole] | 0 | 106 | 86.5 | 4.1 | 125 | 120 | 2.1 | 140 | 124 | 88.1 | 148 | 4.1 |  |  | 
CCCCCCCOc1cc2c(cc1/C(C)=C/c1ccc(C(=O)O)cc1)C(C)(C)CCS2(=O)=O [CB65757] | 1 | 118 | 116 | 0 | 126 | 124 | 0 | 111 | 108 | 106 | 146 | 0 |  |  | 
C=C(c1ccc(C(=O)Nc2ccc(O)cc2)cc1)c1cc2c(cc1C)C(C)(C)CCC2(C)C [CB65801] | 0.2 | 93.4 | 138 | 1.6 | 62.7 | 92.8 |  |  |  |  |  |  |  |  | 
C/C(=C/c1ccc2c(c1)C(C)(C)CCS2(=O)=O)c1ccc(C(=O)O)cc1 [CB72484] | 129 | 138 | 145 | 99 | 128 | 129 | 129 | 111 | 114 | 131 | 130 | 182 |  |  | 
Cc1cc2c(cc1C(=O)c1ccc(C(=O)Nc3ccc(O)cc3)cc1)C(C)(C)CCC2(C)C [CB81616] | 0 | 134 | 136 | 1.4 | 96.7 | 103 |  |  |  |  |  |  |  |  | 
